Consider two compounds from patent US10751379B2, “Method for preparing anti-obesity composition by using astringent persimmons and mandarin peels” (INDUSTRY ACADEMIC COORPERATION FOUNDATION DAEGU HAANY …, priority 2016, dated 2020).

The test system of series [1] is HFD-induced obesity in mice. In words: Serum lipid profiles in HFD-induced obesity mice, 6 weeks. In kind it is in vivo, ICR mice. The conditions noted are these: Orlistat orally daily for 6 weeks.
Experimental: Male healthy 4-week-old ICR mice (about 30-32 g) were purchased from Orient (Gyeonggi-do, Korea). Each mouse was kept at room temperature (22±3° C.) and humidity (55±5%) with a 12-h light/dark cycle. The experiments were approved by the Ethics Committee of Animal Experimentation of the University of Daegu Haany. The mice were allowed free access to laboratory pellet chow and water ad libitum. After adaptation (1 week), all experimental mice except normal mice (n=8) were fed with 60% high-fat diet (HFD; Diet 12492, Research Diets, Inc., 105 New Brunswick, N.J., USA) for 5 days to adapt to a feed. Thereafter, ICR mice (n=32) fed 60% HFD were randomly divided into four groups (HFD control group, orlistat group, and two PCM treatment groups (50 and 200 mg/kg/day))(in each group n=8). The normal group is supplied with a normal feed and the rest of the groups are supplied with 60% HFD until the end of experiment. The normal and HFD control groups were given water using a stomach tube, while the drug treatment groups were orally given Orlistat or PCM daily using a stomach tube for 6 weeks. After administration for 6 weeks, each mouse was sacrificed after fasting for 12 hours. The blood was immediately centrifuged for 10 minutes at 4° C. Serum triglyceride and total cholesterol were conducted spectrophotometrically using commercially available kits (Wako Pure Chemical Industries, Ltd., Osaka, Japan). HDL-cholesterol is measured using a commercial kit from Asan Pharm Co., Ltd. (Hwaseong-si, Korea, Cat AM203). LDL-cholesterol levels are calculated though TG, TC and HDL levels, and the following formula.
For a further series, the target named is T1, pancreatic lipase enzyme (Homo sapiens, UniProt P16233).
T1 sequence (P16233 17-465): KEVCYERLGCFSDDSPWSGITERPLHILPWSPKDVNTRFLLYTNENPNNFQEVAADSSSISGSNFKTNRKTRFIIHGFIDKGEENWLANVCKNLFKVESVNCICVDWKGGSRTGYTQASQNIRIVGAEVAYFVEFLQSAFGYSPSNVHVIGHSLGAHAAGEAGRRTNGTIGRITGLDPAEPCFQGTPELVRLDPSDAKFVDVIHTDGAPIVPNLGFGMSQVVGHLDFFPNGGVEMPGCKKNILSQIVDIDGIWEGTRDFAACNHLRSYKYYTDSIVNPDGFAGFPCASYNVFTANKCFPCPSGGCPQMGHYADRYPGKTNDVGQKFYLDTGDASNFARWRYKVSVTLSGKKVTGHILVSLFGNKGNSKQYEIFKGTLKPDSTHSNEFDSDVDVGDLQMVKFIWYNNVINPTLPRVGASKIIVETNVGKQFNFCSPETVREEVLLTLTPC
The conditions noted are these: background statement; cited from earlier work.

Series [2] has as its system HFD-induced obesity in mice. Put plainly: Body weight and visceral fat in HFD-induced obesity mice, 6 weeks. In kind it is in vivo, ICR mice.
Experimental: Male healthy 4-week-old ICR mice (about 30-32 g) were purchased from Orient (Gyeonggi-do, Korea). Each mouse was kept at room temperature (22±3° C.) and humidity (55±5%) with a 12-h light/dark cycle. […] The mice were allowed free access to laboratory pellet chow and water ad libitum. After adaptation (1 week), all experimental mice except normal mice (n=8) were fed with 60% high-fat diet (HFD; Diet 12492, Research Diets, Inc., 105 New Brunswick, N.J., USA) for 5 days to adapt to a feed. Thereafter, ICR mice (n=32) fed 60% HFD were randomly divided into four groups (HFD control group, orlistat group, and two PCM treatment groups (50 and 200 mg/kg/day))(in each group n=8). The normal group is supplied with a normal feed and the rest of the groups are supplied with 60% HFD until the end of experiment. The normal and HFD control groups were given water using a stomach tube, while the drug treatment groups were orally given Orlistat or PCM daily using a stomach tube for 6 weeks. After administration for 6 weeks, each mouse was sacrificed after fasting for 12 hours. The blood was immediately centrifuged for 10 minutes at 4° C.
For series [3], the target named is T2, porcine pancreatic lipase (Sus scrofa, UniProt P00591).
T2 construct: purchased Sigma-Aldrich Co. Type 2 (catalogue number not given)
T2 sequence (P00591 1-450): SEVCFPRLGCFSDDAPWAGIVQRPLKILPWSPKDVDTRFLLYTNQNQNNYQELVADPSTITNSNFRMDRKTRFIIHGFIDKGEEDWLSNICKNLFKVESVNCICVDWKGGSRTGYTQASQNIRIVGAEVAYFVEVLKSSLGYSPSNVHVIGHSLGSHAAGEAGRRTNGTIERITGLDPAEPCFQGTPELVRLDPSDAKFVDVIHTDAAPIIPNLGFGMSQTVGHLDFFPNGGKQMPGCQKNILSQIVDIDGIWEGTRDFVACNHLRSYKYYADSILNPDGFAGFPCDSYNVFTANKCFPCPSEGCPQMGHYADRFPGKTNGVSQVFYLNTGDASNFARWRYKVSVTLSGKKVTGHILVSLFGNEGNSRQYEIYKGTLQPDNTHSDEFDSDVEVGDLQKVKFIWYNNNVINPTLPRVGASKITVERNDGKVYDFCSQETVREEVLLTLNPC
In words: Pancreatic lipase inhibition (p-NPB hydrolysis). In kind it is biochemical. The conditions noted are these: PCM 100-1000 μg/mL, orlistat 0.1-1 μg/mL, n=4.

The next series in a line: ABTS radical inhibition. Format: biochemical. The conditions noted are these: 15 minutes at room temperature in the dark, 750 nm.
A short description of series [4]: DPPH radical inhibition (antioxidant activity). In kind it is biochemical. The settings on record: 60 μM DPPH, 30 minutes at 25° C., 540 nm.
Experimental: The ascorbic acid (standard sample) was prepared for eight concentrations (0.5, 1, 2, 5, 10, 20, 50, and 200 μg/mL). The reaction mixture was stored in the dark at 25° C. for 30 minutes. The optical density was determined using a microplate reader (M200 PRO, Tecan, Austria). The mixture was measured spectrophotometrically using 540 nm. The antioxidant activity of each sample was expressed in terms of IC50 (micromolar concentration required to inhibit DPPH radical formation by 50%, calculated from the log-dose inhibition curve). Antioxidant activity was expressed in terms of IC50, and a lower IC50 value corresponds to a large inhibition. The radical scavenging activity was calculated using the following formula. DPPH radical scavenging activity (%)=[1(Asample/Ablank)]×100
Setting [5] is: Orlistat orally daily for 6 weeks.

In brackets after ≈: the same amount, converted by molar mass.

Experimental for ABTS radical inhibition: ABTS inhibition of the different extracts was measured according to the modified method of Park et al. ABTS stock solution was dissolved in water to 7.4 mM concentration. The ABTS radical cation (ABTS) was produced by reacting ABTS stock solution with 2.45 mM potassium persulfate and allowing the mixture to stand for 14 hours at room temperature in the dark. The ABTS solution was diluted with ethanol to obtain an absorbance of 0.70±0.02 at 750 nm. After adding diluted ABTS solution to PCM solution, the mixture was left standing at room temperature for 15 minutes in the dark. The ascorbic acid (standard sample) was prepared for eight concentrations (0.5, 1, 2, 5, 10, 20, 50, and 200 μg/mL). The absorbance at 750 nm was measured using a microplate reader (M200 PRO, Tecan, Austria). The blank was prepared in the same manner, except that distilled water was used instead of the sample. The radical scavenging activity was calculated using the following formula. ABTS radical scavenging activity (%)=[1(Asample/Ablank)]×100

Regarding `CCCCCCCCCCC[C@@H](C[C@@H]1OC(=O)[C@H]1CCCCCC)OC(=O)[C@H](CC(C)C)NC=O` [Orlistat], in series [1] (calculated from TG, TC, HDL), the LDL-cholesterol level result is recorded as “at the same level as normal food-supplied mice”. Moreover, in series [1] (serum), the TC level result is “at the same level as normal food-supplied mice” and the TG level result was “at the same level as normal food-supplied mice”. In addition, on pancreatic lipase enzyme, the “prevention of absorption of dietary fat” value is reported as “approximately 30%” and the side effects result is “severe gastrointestinal side effects”. Besides, in series [2] (setting [5]), the “Weight Amount of change” value was 8.21 ± 1.82 g/6 weeks and the “Weight Final” value is given as 44.92 ± 1.62 g. Moreover, in series [2] (Orlistat, 6 weeks), the “visceral fat weight compared with HFD control mice” value is on record as “significantly decreased”. In addition, the “lipase inhibition versus dose (FIG. 2)” value in series [3] is given as “did not rise at least a certain concentration”.

For the compound `O=C1O[C@H]([C@@H](O)CO)C(O)=C1O` [ascorbic acid], the “IC50 value against the ABTS” value in “ABTS radical inhibition” was found to be 2.27 ± 0.19 µg/mL (≈ 12.9 µM). In addition, the “IC50 of DPPH inhibition” value in series [4] turned out to be 1.26 ± 0.02 µg/mL.
